Results reported in patent publication US20260191838A1, “COMBINATIONS COMPRISING A MENIN-MLL INHIBITOR AND A BCL-2 INHIBITOR” (JANSSEN PHARMACEUTICA NV, priority 2022, published 2026).

System: MV4-11 cells
Assay: In vitro proliferation (Cell Titer Glo), Compound 51 with decitabine and venetoclax, MV4-11
Format: cell-based, human
Set-up: key to Synergy/antagonism call (maxR test): no asterisk: absence of any asterisk indicates an additive effect; antagonism is indicated by “*”; synergy is indicated by “**”; Effect size (BIGL, HSA null model): scale not given here
Description: 3a) In Vitro Proliferation—Menin-MLL Inhibitor in Combination with a DNA Hypomethylating Agent (Decitabine) and a BCL2 Inhibitor (Venetoclax)
The effect of Compound 51 in combination with decitabine and venetoclax was determined in proliferation assays.
AML cell lines MOLM-13, OCI-AML3 and MV4-11 were purchased from DSMZ. MOLM-13 were grown in RPMI medium supplemented with 10% Fetal Bovine Serum (FBS) and 1% penicillin/streptomycin. MV4-11 cells were grown in IMDM medium supplemented with 10% FBS and 1% penicillin/streptomycin. OCI-AML3 cells were cultured in 80-90% alpha-MEM (without ribo- and deoxyribonucleosides)+10-20% FBS. All cell lines were cultured at 37° C. in 5% CO2 atmosphere.
AML cell lines (10×10^3 cells/well) were seeded in 96-well plates and grown for 6 days in serum (10%)-containing medium in the presence or absence of inhibitors at the indicated concentrations. Proliferation was analyzed by means of a Cell Titer Glo assay using the CellTiter 96 Aqueous One Solution Cell Proliferation Assay (Promega, Madison, WI, USA), according to the manufacturer's instructions. Data are mean with standard deviation from two to four independent experiments in technical triplicates.
R-based Biochemically Intuitive Generalized Loewe (BIGL) model implemented with a highest single agent (HSA) null model. Specifically, the BIGL methodology was applied to calculate drug-drug interactions (Van der Borght, K., Tourny, A., Bagdziunas, R. et al. BIGL: Biochemically Intuitive Generalized Loewe null model for prediction of the expected combined effect compatible with partial agonism and antagonism. Sci Rep 7, 17935 (2017); Thas, O., Tourny, A., Verbist, B., Hawinkel, S., Nazarov, M., Mutambanengwe, K., & Bijnens, L. Statistical detection of synergy: new methods and a comparative study. Pharmaceutical Statistics (2021)).
Synergy matrix results of the BIGL analysis of the cell line data with HSA as mean model calculated on the basis of the cellular metabolic activity using Cell Titer-Glo assay. Bootstrap confidence intervals are indicated. Effect sizes and their confidence intervals are shown. […] No significant average effect if zero is included in the interval.

[1] = Compound 51 0.01 μM, Decitabine 0.015 μM, Venetoclax 0.001 μM
[2] = Compound 51 0.01 μM, Decitabine 0.15 μM, Venetoclax 0.002 μM
[3] = Compound 51 0.01 μM, Decitabine 1.5 μM, Venetoclax 0.02 μM
[4] = Compound 51 0.05 μM, Decitabine 0.015 μM, Venetoclax 0.001 μM
[5] = Compound 51 0.05 μM, Decitabine 0.15 μM, Venetoclax 0.002 μM
[6] = Compound 51 0.05 μM, Decitabine 1.5 μM, Venetoclax 0.02 μM
[7] = Compound 51 0.1 μM, Decitabine 0.15 μM, Venetoclax 0.002 μM
[8] = Compound 51 0.1 μM, Decitabine 1.5 μM, Venetoclax 0.02 μM

CC(=O)N1CCC(CN2CC[C@@H](Cc3cn(-c4ccc(F)cc4C(=O)N(C)C(C)C)c4cncc(C)c34)C2)CC1 [Compound 51] was tested, and the “Effect size (BIGL, HSA null model)” value (Compound 51 0.001 μM, Decitabine 0.0015 μM, Venetoclax 0.0001 μM) was −0.02, the “Effect size (BIGL, HSA null model)” value (Compound 51 0.001 μM, Decitabine 0.015 μM, Venetoclax 0.001 μM) was −0.05 and the “Effect size (BIGL, HSA null model)” value (Compound 51 0.001 μM, Decitabine 0.15 μM, Venetoclax 0.002 μM) was −0.01. The “Effect size (BIGL, HSA null model)” value (Compound 51 0.001 μM, Decitabine 1.5 μM, Venetoclax 0.02 μM) was −0.08, the “Effect size (BIGL, HSA null model)” value (Compound 51 0.001 μM, Decitabine 3 μM, Venetoclax 0.2 μM) was −0.06 and the “Effect size (BIGL, HSA null model)” value (Compound 51 0.01 μM, Decitabine 0.0015 μM, Venetoclax 0.0001 μM) was −0.02. The “Effect size (BIGL, HSA null model)” value [1] was 0.22, the “Synergy/antagonism call (maxR test)” value [1] was “**” and the “Effect size (BIGL, HSA null model)” value [2] was −0.26. The “Synergy/antagonism call (maxR test)” value [2] was “**”, the “Effect size (BIGL, HSA null model)” value [3] was −0.1 and the “Synergy/antagonism call (maxR test)” value [3] was “**”. For the same compound, the “Effect size (BIGL, HSA null model)” value (Compound 51 0.01 μM, Decitabine 3 μM, Venetoclax 0.2 μM) was −0.06, the “Effect size (BIGL, HSA null model)” value (Compound 51 0.05 μM, Decitabine 0.0015 μM, Venetoclax 0.0001 μM) was 0 and the “Effect size (BIGL, HSA null model)” value [4] was −0.17. For the same compound, the “Synergy/antagonism call (maxR test)” value [4] was “**”, the “Effect size (BIGL, HSA null model)” value [5] was −0.24 and the “Synergy/antagonism call (maxR test)” value [5] was “**”. For the same compound, the “Effect size (BIGL, HSA null model)” value [6] was −0.1, the “Synergy/antagonism call (maxR test)” value [6] was “**” and the “Effect size (BIGL, HSA null model)” value (Compound 51 0.05 μM, Decitabine 3 μM, Venetoclax 0.2 μM) was −0.06. The “Effect size (BIGL, HSA null model)” value (Compound 51 0.1 μM, Decitabine 0.0015 μM, Venetoclax 0.0001 μM) was 0.03, the “Effect size (BIGL, HSA null model)” value (Compound 51 0.1 μM, Decitabine 0.015 μM, Venetoclax 0.001 μM) was −0.06 and the “Effect size (BIGL, HSA null model)” value [7] was −0.09. For the same compound, the “Synergy/antagonism call (maxR test)” value [7] was “**”, the “Effect size (BIGL, HSA null model)” value [8] was −0.3 and the “Synergy/antagonism call (maxR test)” value [8] was “**”. For the same compound, the “Effect size (BIGL, HSA null model)” value (Compound 51 0.1 μM, Decitabine 3 μM, Venetoclax 0.2 μM) was −0.06, the “Effect size (BIGL, HSA null model)” value (Compound 51 0.5 μM, Decitabine 0.0015 μM, Venetoclax 0.0001 μM) was 0 and the “Effect size (BIGL, HSA null model)” value (Compound 51 0.5 μM, Decitabine 0.015 μM, Venetoclax 0.001 μM) was −0.02. The “Effect size (BIGL, HSA null model)” value (Compound 51 0.5 μM, Decitabine 0.15 μM, Venetoclax 0.002 μM) was −0.02, the “Effect size (BIGL, HSA null model)” value (Compound 51 0.5 μM, Decitabine 1.5 μM, Venetoclax 0.02 μM) was −0.03 and the “Effect size (BIGL, HSA null model)” value (Compound 51 0.5 μM, Decitabine 3 μM, Venetoclax 0.2 μM) was −0.03. For the same compound, the “Effect size (BIGL, HSA null model)” value (Compound 51 1 μM, Decitabine 0.0015 μM, Venetoclax 0.0001 μM) was −0.03, the “Effect size (BIGL, HSA null model)” value (Compound 51 1 μM, Decitabine 0.015 μM, Venetoclax 0.001 μM) was −0.02 and the “Effect size (BIGL, HSA null model)” value (Compound 51 1 μM, Decitabine 0.15 μM, Venetoclax 0.002 μM) was −0.02. The “Effect size (BIGL, HSA null model)” value (Compound 51 1 μM, Decitabine 1.5 μM, Venetoclax 0.02 μM) was −0.03, the “Effect size (BIGL, HSA null model)” value (Compound 51 1 μM, Decitabine 3 μM, Venetoclax 0.2 μM) was −0.08 and the “combination effect on proliferation (in words)” value (pairwise matrix of decitabine and Compound 51 in the presence of Venetoclax, MV4-11, 6-day CellTiter-Glo) was “synergistically cytotoxic”.
